In patent US11236354B2, “Glyphosate-n-acetyltransferase (GLYAT) sequences and methods of use” (PIONEER HI-BRED INTERNATIONAL, INC., priority 2013, dated 2022):

Key:
Test in all cases: Substrate saturation kinetic analysis of purified GLYAT
[1] = target: GLYAT variant SEQ ID NO:8 (derived from SEQ ID NO:1 and 2) (Bacillus licheniformis, UniProt Q65LG7, A28V/D131E/E119K/E14D/E65Q/E67K/E68K/E83D/G37R/G38S/I132T/I135A/I15L/I53V/I91V/K101R/K144R/K58Q/L105M/L106I/L26I/L36T/L97I/M75V/N8S/R47G/R92K/T89S/V114A/Y130F/Y45F); conditions: pH 7.0
[2] = target: GLYAT variant SEQ ID NO:5 (derived from SEQ ID NO:1 and 2) (Bacillus licheniformis, UniProt Q65LG7, A28V/D131E/E14D/E65Q/E67K/E68K/G37R/I132T/I135A/I15L/I19V/I53V/I91V/K101R/K144R/K58Q/L105M/L106I/L26I/L97I/M75V/R47G/R92K/T89S/V114A/Y130F/Y45F); conditions: pH 7.0
[3] = target: T1, native GLYAT (glyphosate-N-acetyltransferase), SEQ ID NO:173 (Bacillus licheniformis, UniProt Q65LG7); assay type: biochemical; conditions: Table 5; native GLYAT SEQ ID NO:173; ratio of kcat/Km asp to kcat/Km glyph
T1 sequence (Q65LG7 1-146): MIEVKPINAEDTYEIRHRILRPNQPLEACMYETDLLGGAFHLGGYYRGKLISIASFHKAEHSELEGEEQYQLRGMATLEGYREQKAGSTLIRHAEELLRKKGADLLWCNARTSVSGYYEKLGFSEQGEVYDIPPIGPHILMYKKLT
Method: (§1) E. coli cultures in LB or 2×YT were grown overnight at 37° C. to saturation. The cells were used as a 2% inoculum into fresh media. When OD reached 0.6, IPTG was added to 0.2 mM and growth was continued for at least 6 hours. Cells were harvested by centrifugation and stored at −80° C. Cells were lysed with BPER (Pierce) containing 1 mM dithiothreitol, 0.2 mg/ml lysozyme, 2 mg/ml protease inhibitor cocktail (Sigma bacterial cell cocktail, P8465) and endonuclease. Lysate supernatants were passed through a column of NHS-activated Agarose (Thermo, #26197) derivatized with coenzyme A. Columns were washed with 25 mM Hepes, pH 7, containing progressively higher concentrations of KCl, then eluted with 25 mM Hepes, 100 mM KCl, 10% ethylene glycol and 1 mM acetyl CoA. Purity as evaluated by polyacrylamide gel electrophoresis was deemed consistently high enough to be assumed to be 100%. Protein concentration was determined with the Bradford assay using a large-scale lot of produced GLYAT protein as standard.
(§2) Kinetic parameters for various substrates were obtained using a range of seven substrate concentrations plus a blank containing none of the varied substrate. The non-varied substrate was present at a saturating concentration. Six-microliter aliquots of 50-fold concentrated stock solutions of the varied substrate were placed in a 96-well assay plate (Greiner BioOne UV-Star). Reactions were started with the addition of 294 ul of 25 mM Hepes, pH 7.0, 100 mM KCL, 10% ethylene glycol, the non-varied substrate and 10 to 200 nM enzyme. Absorbance was monitored for one minute with a Spectramax 384 Plus plate reader (Molecular Devices). If the amino acid present at position 30 (29 if alanine is absent at position 2) was cysteine, absorbance was monitored at 235 nm, which directly detects cleavage of the sulfoester bond of acetyl CoA. If the amino acid present at position 30 (29 if alanine is absent at position 2) was isoleucine, 0.5 mM 5,5′-dithiobis-(2-nitrobenzoic acid), which reacts with the coenzyme A thiol generated in the enzyme catalyzed reaction, was included in the reaction mix and absorbance was monitored at 412 nm. Initial rates were processed by the Softmax software to obtain kinetic parameters, using the double-reciprocal transformation.

[4] = target: GLYAT variant SEQ ID NO:7 (derived from SEQ ID NO:1 and 2) (Bacillus licheniformis, UniProt Q65LG7, A28V/D131E/E119K/E14D/E65Q/E67K/E68K/E79G/E83D/G37R/G38S/G48A/I132L/I135A/I15L/I19V/I2L/I53V/I91V/K101R/K144R/K58Q/L105M/L106I/L26I/L36T/L97I/M75V/N109F/R47G/R92K/T33S/T89S/V114A/Y130F/Y31W/Y45F); assay type: biochemical
Method: as §1, §2

[5] = target: novel GLYAT variants of Table 3 (high specificity variants derived from SEQ ID NO:1 and 2) (Bacillus licheniformis, UniProt Q65LG7); assay type: biochemical; conditions: lowest value in novel variants
Method: as §1, §2

[6] = target: GLYAT (glyphosate-N-acetyltransferase), parent, SEQ ID NO:2 (Bacillus licheniformis, UniProt Q65LG7, A28V/D131E/E119K/E63D/E65Q/E67Q/E68K/E83D/E96Q/G37R/I132T/I135V/I15L/I2L/K101R/K144R/K58Q/L105M/L97I/R18K/T89S/V114A/Y130F/Y45F); conditions: pH 7.0
[7] = target: GLYAT variant SEQ ID NO:10 (derived from SEQ ID NO:1 and 2) (Bacillus licheniformis, UniProt Q65LG7, A28V/D131E/E14D/E65Q/E67K/E68K/G37R/G38S/H61R/I132T/I135A/I15L/I19V/I53V/I91V/K101R/K144R/K58Q/L105M/L106I/L26I/L97I/M75V/R47G/R92K/T89S/V114A/Y130F/Y45F); conditions: pH 7.0
[8] = target: GLYAT variant SEQ ID NO:9 (derived from SEQ ID NO:1 and 2) (Bacillus licheniformis, UniProt Q65LG7, A28V/D131E/E119K/E14D/E65Q/E67K/E68K/G37R/G38S/I132T/I135A/I15L/I19V/I53V/I91V/K101R/K144R/K58Q/L105M/L26I/L97I/M75V/R47G/R92K/T89S/V114A/Y130F/Y45F); conditions: pH 7.0
[9] = pH 7.0, non-varied substrate saturating

GLYAT (glyphosate-N-acetyltransferase), parent, SEQ ID NO:2, sequence (Q65LG7 entry or part of it with the stated changes): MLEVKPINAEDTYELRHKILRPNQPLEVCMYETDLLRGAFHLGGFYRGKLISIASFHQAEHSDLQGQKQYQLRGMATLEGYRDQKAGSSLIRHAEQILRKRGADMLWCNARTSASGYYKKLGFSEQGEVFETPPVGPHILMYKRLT

For N[C@@H](CC(=O)O)C(=O)O [aspartate], the “Asp as % of glyph (kcat/KM asp / kcat/KM glyph)” value [1] was 0.079%, the “Asp as % of glyph (kcat/KM asp / kcat/KM glyph)” value [2] was 0.059% and the “kcat/Km asp, % glyph” value [3] was 55.6%. For the same compound, the “Asp as % of glyph (kcat/KM asp / kcat/KM glyph)” value ([4]; pH 7.0) was 0.154%, the “kcat (aspartate)” value [4, 9] was 1.52 s⁻¹ and the “kcat/KM (aspartate)” value [4, 9] was 13.7 M⁻¹ s⁻¹. For the same compound, the “specificity (kcat/KM asp/kcat/KM glyph)” value [5] was at least 0.014%, the kcat/KM with aspartate ([5]; 25 mM Hepes, pH 7.0) was at least 1.7 M⁻¹ s⁻¹ and the “Asp as % of glyph (kcat/KM asp / kcat/KM glyph)” value [6] was 0.574%. For the same compound, the “Asp as % of glyph (kcat/KM asp / kcat/KM glyph)” value [7] was 0.091% and the “Asp as % of glyph (kcat/KM asp / kcat/KM glyph)” value [8] was 0.073%.
